Test results reported in a melting point compilation (Tetko et al.; mined from patent text by program, amines drawn as free bases though some values may be those of a salt).

Row | SMILES | melting point [°C]
1 | N=C(NO)c1cccc(-c2ccc(O)c(-c3nc4cc(C(=N)NO)ccc4[nH]3)c2)c1 | 352 to 355
2 | Cc1cccc2c(=O)[nH]c(C3CN4CCC3CC4)nc12 (stereo not given) | 230 to 231
3 | Cc1ccc(SC(Cl)=C(C(Cl)=C(Cl)Cl)[N+](=O)[O-])cc1 | 110 to 111
4 | CCC(CC)Oc1cc(C)nc2c1nc(N)n2-c1c(C)cc(C)cc1C | 159 to 161
5 | Nc1ncc(-c2cnc3ccc(-c4ccc(OCC5(N)COC5)cc4)nn23)cc1C(F)(F)F | 198 to 200
6 | CCCCCCCCCCCCCC/C=C\CNC(=O)OC(C)(C)C | 42 to 46
7 | CCCCCCCCCCC[C@@H](O)CCO | 59 to 60
8 | COc1cccc(-c2cn3cccc(C=O)c3n2)c1 | 71 to 73
9 | N#Cc1cccc(NCc2nc3ccc(F)cc3c(=O)n2-c2ccccc2Cl)c1 | 225 to 228
10 | CC(C)(C)c1ccc(C(=O)Nc2cn3cc(-c4ncc[nH]4)ccc3n2)cc1 | 300 to 301
11 | Cc1nc(N2CCC(NCCC(F)(F)F)C2=O)sc1C(=O)NCc1ccc(F)cc1 (stereo not given) | 142 to 143
12 | COc1ccc(CN2CCc3cc(O)c(OC)cc3C2)cc1 | 162 to 163
13 | O=C(COc1ccc2ccc(=O)oc2c1)c1ccccc1 | 163 to 165
14 | CC(=O)Nc1ccc(CC(=O)O)cc1Br | 157 to 159
15 | CC(C)(C)c1coc2c(-c3ccc(F)cc3)c(-c3ccc(S(C)(=O)=O)cc3)nn12 | 181 to 182
16 | O=C(c1ccc(-n2ccc(C(F)(F)F)n2)cc1C(F)(F)F)N1Cc2cccnc2Nc2ccccc21 | 127 to 129
17 | c1ccc(C2CNc3c(cnc4ccccc34)O2)cc1 (stereo not given) | 194 to 195
18 | Cc1ncc(CN2CC=C(/C=C/c3ccccc3)CC2)c(N)n1 | 199 to 203
19 | CCOc1cccc2cc(C(=O)c3ccc(Cl)cc3)oc12 | 108 to 110
20 | CC(C)c1ccc(-c2nc(=O)n(Cc3ccccc3)c3ccc(O)cc23)cc1 | > 270
21 | C=Cc1ccc(NC(=O)OCC2(C)COC(=O)OC2)cc1 | 120 to 121
22 | COC(=O)NC1CCN(c2ncc3ncnc(Nc4ccc(F)c(Cl)c4)c3n2)CC1 | 195 to 197
23 | Cc1oc2cc(CO)ccc2c1C | 78 to 79
24 | Fc1c(F)c(F)c(-c2c3ccccc3c(-c3c(F)c(F)c(F)c(F)c3F)c3ccccc23)c(F)c1F | 337 to 338
25 | COC(=O)c1ccc(-c2cc(-c3cc4c(cc3C)CCCC4(C)C)[nH]n2)cc1 | 92 to 93

Row | SMILES | melting point [°C]
26 | O=[N+]([O-])c1cccc(OCCn2ccnc2)c1 | 52.5 to 55.5
27 | O=C(Nc1ccccc1)Nc1nc(=O)n(S(=O)(=O)c2ccccc2)cc1F | 210 to 214
28 | COC(=O)Cc1cccc(Cc2ccccc2C(=O)O)c1 | 67 to 70
29 | Cc1nc(-c2ccc(Cl)cc2)oc1COC(C)(C)C(=O)O | 166 to 167
30 | NC(=O)c1ccc(-c2ccc3nnn(Cc4cc5cccnc5cc4F)c3n2)cc1Cl | 202 to 204
31 | CCCCOc1ccc(S(=O)(=O)C2(C(=O)NO)CCN(C)CC2)cc1 | 118
32 | Cc1cccc(-c2[nH]c(C(C)C)nc2-c2ccc(F)c(-c3ccc[nH]3)c2)n1 | 103 to 106
33 | Cc1ccc(-n2nc(O)c3[nH]c4cc(Cl)ccc4c(=O)c3c2=O)cc1 | 368 to 370
34 | CC1CN(c2ccc(Cl)cn2)N=C1N (stereo not given) | 159 to 160
35 | COc1ccc(C(=O)c2c(Cc3ccccc3)sc(C)c2C)cc1 | 85 to 86
36 | COC(=O)C(c1ccccc1)C1CCN(c2ccc(N)cc2)CC1 (stereo not given) | 125
37 | CN1CC[C@]2(c3cccc(O)c3)CC(=O)CC[C@@H]2C1 (relative stereo) | 175
38 | Cc1cc(N2CCN(c3ccccc3)CC2)c(C#N)c(=O)[nH]1 | > 270
39 | CN1CCC(O)(c2cn(-c3ccnc(NC4CCCC4)n3)c(-c3cccc(C(F)(F)F)c3)n2)CC1 | 189 to 193
40 | COc1ccc(C(=C/C=C/C(=O)NCCCOc2cccnc2)c2ccc(OC)cc2)cc1 | 146 to 147
41 | Cc1[nH]c(=O)ccc1-c1ccccc1 | 201 to 208
42 | CCCCCc1cc2c(=O)oc(C(=O)OCC)nc2s1 | 69.6 to 70.5
43 | Nc1ncnc2c1c(-c1cn[nH]c1)nn2Cc1oc2ccccc2c(=O)c1-c1ccccc1 | 235 to 237
44 | CCCC1CCC(C2CCc3c4c(c(F)c(F)c3O2)OCCC4)CC1 (stereo not given) | 152
45 | CN(C)c1cc2c3c(cccc3c1)C(=O)N(CCCCCC(=O)O)C2=O | 111 to 114
46 | FC(F)(F)c1cccc(CCc2nnc(-c3ccc4nccn4c3)o2)c1 | 152 to 153
47 | c1cc2c3c(c1)CNc1ccccc1N3CC2 | 175 to 177
48 | O=C([C@@H]1O[C@H]1c1ccccc1)N(CC1CC1)[C@@H]1CCCC[C@H]1O | 110 to 120
49 | CCON=C(C(C)=NOCc1ccccc1C(=NOC)C(=O)NC)c1ccc(OCc2cccc(C(F)(F)F)c2)cc1 | 130 to 132
50 | COc1cc(OC)c2c(c1)C(C)(C)C(c1ccc(OC)c(OC)c1)C(C)C(=O)O2 (stereo not given) | 163 to 165

Row | SMILES | melting point [°C]
51 | O=C1CCN(C(=O)Cl)c2ccc(Cl)cc21 | 114 to 116
52 | COc1ccc2cnc(Nc3ccccc3)nc2c1C(C)C | 172 to 173
53 | CCC1(CCCCN2CCc3sccc3C2)C(=O)Nc2ccc(C)cc21 (stereo not given) | 138 to 140
54 | CCNc1ccc(C(=O)OC)cc1 | 132 to 135
55 | O=[N+]([O-])c1cc(F)c(N2CCC3(CC2)CO3)c(F)c1 | 96 to 97
56 | O=c1[nH]c2cc(I)ccc2n(CP(=O)(O)O)c1=O | 295 to 297
57 | COc1ccc(C(=O)Nc2c(Cl)cc(NC(C)=O)cc2Cl)cc1OC1CCCC1 | 250 to 252
58 | O=c1[nH]c2cc(Cl)ccc2n1C1CCN(CCNC(c2ccc(F)cc2)c2ccc(F)cc2)CC1 | 199
59 | Cc1ccc(C)n1C1=CC2=C(CC1)CCc1[nH]c(=O)c(=O)n(O)c12 | > 250
60 | O=c1n(CCC#Cc2cccc(CF)n2)nc2ccccn12 | 106 to 107
61 | CCOC(=O)/C(=N\OC1(C)CCCCC1)c1csc(N)n1 | 126
62 | C=CC(=O)OCCOC(=O)Nc1ccccc1 | 66 to 68
63 | CCOCCCOC(C)Cc1ccc(-c2ccc(O)cc2)cc1 (single isomer, unassigned; (-)) | 53 to 55
64 | FC(F)(F)c1cnc(CNC(=S)Nc2ccccc2Cl)c(Cl)c1 | 126
65 | [N-]=[N+]=NCc1n[nH]nc1-c1ccc(Cl)cc1C(=O)c1ccccc1 | 128 to 131
66 | Cc1nc2cc3c(cc2c(=O)[nH]1)C(N(C)c1ccc(C(=O)NC(CCc2nnn(CC(=O)O)n2)C(=O)O)c(F)c1)CC3 (mixture of isomers) | 196 to 199
67 | O=C(OCCOc1ccc2ncnn2n1)N1CCN(C(c2ccccc2)c2ccccc2)CC1 | 157 to 159
68 | COC(=O)[C@H](CSC)Nc1ncccc1[N+](=O)[O-] | 95 to 97
69 | FC(F)(F)c1ccc(Cl)cn1 | 36 to 37
70 | COc1ccccc1-c1cccc(CC(NC(=O)c2c(Cl)cccc2Cl)C(=O)O)c1 (racemic) | 104
71 | O=C1CCCCN1Cc1ccc(CCn2cnc3cc(-c4ccc(F)cc4)sc3c2=O)cc1 | 216 to 217
72 | C=CCOC(=O)Nc1cc(-c2cccc(Cl)c2)sc1C(=O)OC | 101 to 103
73 | O=S(=O)(Nc1ccc2c(OCc3ccc(-c4ccc(Cl)cc4)cc3F)cccc2c1)C(F)(F)F | 151 to 153
74 | CCCc1nc2ccnn2c(Cl)c1Cc1ccc(-c2ccccc2C#N)cc1 | 137
75 | Cc1cc(-n2c(C)ccc2C)c(C)cc1N=CN(C)C | 90 to 91

Row | SMILES | melting point [°C]
76 | O=C(c1cccs1)c1cc2c(c(Cl)c1Cl)OC(CO)C2 (stereo not given) | 65 to 68
77 | CN(c1ccccc1)c1nc(Cl)c([N+](=O)[O-])s1 | 136 to 137
78 | CCC(C)N1CCc2cnc3ccnn3c21 (stereo not given) | 199
79 | CCc1cc2c(s1)SCCc1cc(=O)n(-c3ccc(Cl)cc3)nc1-2 | 127 to 128
80 | CCN(CC)c1ccc(C(=O)Cn2ncc(-c3ccc(S(C)(=O)=O)cc3)c(-c3ccc(F)cc3)c2=O)cc1 | 105 to 108
81 | COC(=O)C=C[C@@H](Cc1cn(CC=Cc2ccccc2)c2ccccc12)NC(=O)OC(C)(C)C | 119 to 121
82 | CCOC(=O)COCc1nnc(S)n1C | 86 to 88
83 | COCCn1nnc2cc3c(=O)n(C(C)Cn4nccn4)nnc3cc2c1=O (stereo not given) | 145 to 146
84 | O=C(O)COc1ccc2c(=O)c3cccc(Cl)c3oc2c1Cl | 283 to 286
85 | CCOC(=O)COc1ccc2cc(Br)ccc2c1Cl | 92 to 94
86 | Nc1ccc(Cl)cc1C=Nc1ccccc1 | 74
87 | Cc1c(CC(=O)O)c2cc(OCc3csc(-c4ccc(Cl)cc4)n3)ccc2n1Cc1ccc(Cl)cc1 | 145 to 146
88 | COC(=O)NC(=O)NS(=O)(=O)c1ccc(Cl)cc1 | 174 to 175
89 | COC(=O)NC(=Nc1cc(OS(=O)(=O)c2cccc(C(F)(F)F)c2)ccc1NC(N)=O)NC(=O)OC | 131
90 | Cc1nc2c(Br)cnn2c(Cl)c1CCCl | 128 to 130
91 | COc1cc2ncnc(N3CCC(C4(C)CO4)CC3)c2cc1OC (stereo not given) | 125 to 128
92 | COc1ccc(S(=O)(=O)N2CCC[C@H]2C(=O)NO)cc1 | 164 to 166
93 | COc1ccc(O)cc1CCc1ccc2nc[nH]c(=O)c2c1 | 221 to 224
94 | N#Cc1ccc(CC23CCCN2C(=O)N(c2cc(Cl)cc(-n4cccc4)c2)C3=O)cc1 (stereo not given) | 266
95 | CC(C)(C)c1nn(-c2cc(F)c(C#N)cc2F)c(=O)o1 | 137
96 | OCC1CN(Cc2ccccc2)CCN1Cc1ccccc1 (stereo not given) | 77
97 | O=C(C=CCN1CCOCC1)Nc1cc2c(Nc3ccc(F)c(Cl)c3)ncnc2cc1OC1CCCC1 | 143
98 | Cc1nc2n(C)ccn2c(=O)c1CCN1CCC(Nc2nc3ccccc3[nH]2)CC1 | 230
99 | COc1ccc(-c2nc(N)ncc2-c2ccc(=O)n(C(C)C)n2)cc1F | 174
100 | COC(=O)CCc1cc2nc(C(F)(F)F)ccc2n1S(=O)(=O)c1ccccc1 | 119
